Measured values reported in PubChem BioAssay AID588647 (Sanford-Burnham Center for Chemical Genomics, 2011).
Several values for one entry are separate records, joined by “and”; a condition that tells them apart may be missing. Identical values can stand only once. Activity calls are given as the source filed them. How the calls were made is not given here.

These compounds were tested against intestinal alkaline phosphatase (Mus musculus) (assay: mouse IAP inhibition by analogs – biochemical, luminescence, set 2, SAR follow-up (AID 588647)). Conditions: purified mouse IAP, luminescent substrate read-out.

IC50, active:
COc1ccc(/C=N/NC(=O)c2cc(O)c(O)c(O)c2)c(OC)c1 8.41 µM
Cc1ccc(NC(=O)CCNS(=O)(=O)c2ccc3c(c2)oc(=O)n3C)cc1 99 µM
Cc1ccc(C)c(NC(=O)CCNS(=O)(=O)c2ccc3[nH]c(=O)oc3c2)c1 0.4 µM
CC(C)c1ccc(/C=N/NC(=O)c2cc(O)c(O)c(O)c2)cc1 57.5 µM
Cc1ccc(NC(=O)CCNS(=O)(=O)c2ccc3[nH]c(=O)oc3c2)cc1C 84 µM
O=C(N/N=C/c1c(Cl)cccc1Cl)c1cc(O)c(O)c(O)c1 11.1 µM
N#Cc1ccc(NC(=O)CNS(=O)(=O)c2ccc3[nH]c(=O)oc3c2)cc1 1.6 µM and 4.7 µM
COc1ccc(NC(=O)CCCNS(=O)(=O)c2ccc3[nH]c(=O)oc3c2)cc1OC 1.5 µM
O=C(CCNS(=O)(=O)c1ccc2[nH]c(=O)oc2c1)Nc1ccc2c(c1)OCO2 12 µM
O=C(CCNS(=O)(=O)c1ccc2[nH]c(=O)oc2c1)NCc1ccc(Cl)cc1 88 µM
O=C(N/N=C/c1ccc(F)c(Br)c1)c1cc(O)c(O)c(O)c1 8.37 µM
COc1ccc(CNC(=O)CCCNS(=O)(=O)c2ccc3[nH]c(=O)oc3c2)cc1OC 78 µM
COc1ccc(CNS(=O)(=O)c2ccc3[nH]c(=O)oc3c2)c(OC)c1 89 µM
COc1cc(/C=N/NC(=O)c2cc(O)c(O)c(O)c2)ccc1O 3.87 µM
O=C(CCNS(=O)(=O)c1ccc2[nH]c(=O)oc2c1)NCc1ccc(O)c(O)c1 7.7 µM
O=C(N/N=C/c1ccccc1Cl)c1cc(O)c(O)c(O)c1 7.49 µM
O=C(N/N=C/c1ccccc1C(F)(F)F)c1cc(O)c(O)c(O)c1 8.46 µM
COc1ccc(CCNC(=O)CCCNS(=O)(=O)c2ccc3[nH]c(=O)oc3c2)cc1 7.4 µM
N#Cc1cccc(CNC(=O)CCNS(=O)(=O)c2ccc3[nH]c(=O)oc3c2)c1 2 µM
O=C(CCCNS(=O)(=O)c1ccc2[nH]c(=O)oc2c1)NCc1cccc(F)c1 2.8 µM and 13 µM
COc1ccc(/C=N\NC(=O)c2cc(O)c(O)c(O)c2)cc1CN1CCN(c2ccc(F)cc2)CC1 27.9 µM
O=C(CCNS(=O)(=O)c1ccc2[nH]c(=O)oc2c1)NCc1cccc(C(F)(F)F)c1 70 µM

IC50, inactive:
CCOc1ccc(CNC(=O)C2CCCN(S(=O)(=O)c3ccc4[nH]c(=O)oc4c3)C2)cc1OC (stereo not drawn) > 100 µM
Cc1ccccc1CNC(=O)C1CCCN(S(=O)(=O)c2ccc3[nH]c(=O)oc3c2)C1 (stereo not drawn) > 100 µM
CN(C)c1ccc(CNC(=O)C2CCCN(S(=O)(=O)c3ccc4[nH]c(=O)oc4c3)C2)cc1 (stereo not drawn) > 100 µM
COc1ccc(/C=N/NC(=O)c2cc(O)c(O)c(O)c2)cc1OC > 100 µM
O=C(CCNS(=O)(=O)c1ccc2[nH]c(=O)oc2c1)NCc1cccc(F)c1 > 100 µM
O=C(N/N=C/c1ccccc1F)c1ccc(O)cc1 > 100 µM
Cc1ccc(NC(=O)CCNS(=O)(=O)c2ccc3c(c2)oc(=O)n3C)c(C)c1 > 100 µM
O=C(NN=Cc1ccccc1F)c1ccc(O)cc1 > 100 µM
CC(C)Oc1ccc(CNC(=O)C2CCCN(S(=O)(=O)c3ccc4[nH]c(=O)oc4c3)C2)cc1 (stereo not drawn) > 100 µM
N#Cc1ccc(NS(=O)(=O)c2ccc3[nH]c(=O)oc3c2)cc1 > 100 µM
CSc1cccc(NC(=O)C2CCCN(S(=O)(=O)c3ccc4c(c3)oc(=O)n4C)C2)c1 (stereo not drawn) > 100 µM
COc1ccc(NC(=O)CCNS(=O)(=O)c2ccc3ccccc3c2)cc1OC > 100 µM
O=C(N/N=C/c1c(F)cccc1Cl)c1ccc(O)cc1O > 100 µM
CC(=NNC(=O)c1ccccc1OCCOc1ccccc1)c1ccccc1F > 100 µM
COc1ccccc1CNC(=O)CCNS(=O)(=O)c1ccc2[nH]c(=O)oc2c1 > 100 µM
O=C(NCc1ccccc1)C1CCCN(S(=O)(=O)c2ccc3[nH]c(=O)oc3c2)C1 (stereo not drawn) > 100 µM
O=C(N/N=C/c1cc(Br)ccc1F)c1ccc(O)cc1 > 100 µM
CCOc1cc(C(=O)N/N=C/c2c(F)cccc2Cl)cc(OCC)c1OCC > 100 µM
O=C(CCNS(=O)(=O)c1ccc2ccccc2c1)NCCc1ccc2c(c1)OCO2 > 100 µM
O=C(N/N=C/c1c(F)cccc1F)c1ccc(O)cc1 > 100 µM
O=C(N/N=C/c1ccc(Br)cc1F)c1cc(O)ccc1O > 100 µM
O=C(NCc1ccc2c(c1)OCO2)C1CCCN(S(=O)(=O)c2ccc3[nH]c(=O)oc3c2)C1 (stereo not drawn) > 100 µM
CC(C)(C)c1ccc(/C=N/NC(=O)c2cc(O)c(O)c(O)c2)cc1 > 100 µM
O=C(CCNS(=O)(=O)c1ccc2[nH]c(=O)oc2c1)NCc1ccccc1Cl > 100 µM
Cc1ccc(C)c(NS(=O)(=O)c2ccc3[nH]c(=O)oc3c2)c1 > 100 µM
CC(C)c1ccc(NC(=O)C2CCCN(S(=O)(=O)c3ccc4c(c3)oc(=O)n4C)C2)cc1 (stereo not drawn) > 100 µM
